In patent publication US12059413B2, “Methods of inhibiting viruses using compositions targeting TSG101-ubiquitin interaction” (The Research Foundation for the State University of New York, priority 2016, dated 2024):

How the values were obtained:
[1] = biological target: T1, Tsg101 UEV domain (Homo sapiens, UniProt Q99816); assay: NMR / LC-MS binding of compound to Tsg101 UEV domain
T1 construct: Tsg101 UEV domain (residues 2-145) was encoded in a pET-28b vector; His6-TEV site (N, cleaved yes); made in house; host or cells: E. coli Rosetta 2 (DE3) pLysS
T1 sequence (Q99816 2-145): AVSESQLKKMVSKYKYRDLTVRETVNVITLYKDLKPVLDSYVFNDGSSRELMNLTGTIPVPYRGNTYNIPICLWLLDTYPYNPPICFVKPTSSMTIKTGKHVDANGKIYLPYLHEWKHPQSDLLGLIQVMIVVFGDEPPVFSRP
Procedure: N16 (20 mM solution, DMSO) was added to Tsg101 UEV domain in a 10:1 ratio (N16 excess).
For binding studies using NMR spectroscopy, the following complexes were made: Tsg101 UEV-N16, UEV-PTAP, UEV-Ub, UEV-N16-PTAP, and UEV-N16-Ub, all in Tsg101 NMR buffer: 20 mM potassium phosphate, 50 mM NaCl, pH 5.8, with UEV concentration of 200 μM.

[2] = test system: Gag-Tsg101 co-localization on the plasma membrane; assay: Gag-Tsg101 co-localization by fluorescence microscopy, Pearson's coefficient; type: cell-based
Procedure: FIG. 19A-F. N16 (50 μM) prevents co-localization of Gag and Tsg101 on the plasma membrane. A-E) Fluorescence microscopy images of cells that co-express Tsg101-Myc alone or GagWT-GFP and Tsg101-Myc. Cells grown on coverslips were co-transfected with DNA encoding Tsg101-Myc (A) or Tsg101-Myc and GagWT-GFP (B, D and E) or GagP7L-GFP (C) and treated with F15 (D) or N16 (E). After 24 hr the coverslips were processed for microscopy with Tsg101-Myc detected with anti-Myc antibody and Texas Red secondary antibody as described in Materials & Methods. A) Tsg101-Myc in cells treated with DMSO carrier (top) or N16 (bottom). B-E), Top panels, show signal from Gag-GFP; middle panels, images showing Tsg101-Myc signal; bottom panels, merged images showing signals from Gag-GFP and Tsg101-Myc. Boxes frame a region of the plasma membrane. F) Pearson's coefficient of correlation values determined for the images shown. Error bars indicate the highest values obtained for similar samples. n=6.
FIG. 26A-D. N16 binds covalently to C73 in the Tsg101 UEV domain. A) Activation of N16 to reactive sulfenamide. N16 (i) is converted to intermediates sulfenic acid (ii) and sulfenamide (iii) through acid catalysis to yield a covalently attached N16-Tsg101 UEV complex (iv). B) HNCACB Cβ regions for residues C73, L74, 186 and C87 of Tsg101 without (−) and with (+) N16. C) Examination by fluorescence microscopy of cells co-expressing GagWT-GFP and Tsg101WT-Myc, Tsg101C73A-Myc or Tsg101C87A-Myc in the absence and presence of 50 μM N16. n=3 D) Pearson's coefficient of correlation values.
Hela cells grown on cover slips were transfected with pCMV-Gag-EGFP alone or together with pLLEXP1-hTsg101-myc. Cells were fixed in 4% formaldehyde (Sigma) and permeabilized in 0.1% Triton X-100. Tsg101 was detected in the samples by indirect immunofluorescence using anti-myc Mab and Texas Red anti-mouse IgG. Nuclei were stained with Hoechst. Images were captured on an inverted fluorescence/differential-interference contrast (dic) Zeiss Axiovert 200M deconvolving fluorescence microscope operated by AxioVision Version 4.5 (Zeiss) software and deconvolved by using the constrained iterative method (AxioVision). Protein co-localization was assessed in 40 or more cells by determination of Pearson's coefficient of correlation using Image J software and regarded as significant when a value of 0.6 or higher (equivalent to a 95% level of confidence for that number of cells) was observed (Manders, E. M. M., et al. (1993)).

[3] = biological target: T1, Tsg101 UEV domain; assay: Tsg101 melting curves with compounds, relative fluorescence (RFU) shift; type: binding; conditions: at 20 uM
Procedure: FIG. 13B. TSG101 binding of prazole compounds. Melting curves of TSG101 with various prazole compounds assayed by relative fluorescence (RFU) shift. Two control compounds, K21 and N20, had no effect at 40 μM on the Tsg101 melting curve.
FIG. 14A-F. The ubiquitin E2 variant (UEV) domain of Tsg101 was purified by attaching it to an N-terminal His tag with a Tobacco Etch Virus nuclear-inclusion-a endopeptidase (TEV) cleavage site and isolating the tagged protein through two consecutive nickel columns. The first nickel column bound the Tsg101 with the His tag. Following cleavage of the His tag, Tsg101 flowed straight through the second column, removing any impurities from the cell lysate that also bound to the column in step 1, as well as the TEV protease enzyme.
F) Dose-dependence of Tsg101 normalized melting curves for N16 (top) and F15 (bottom). At same concentration, N16 shifts the melting curve to a greater extent to the left than F15. Specifically, at 20 uM, N16 caused a 12 degree Tm shift while F15 gave rise a 5 degree Tm shift. This difference correlated with the potency observed in the cell-based assay. The plot for N16 contains two control compounds, K21 and N20, which have no effect at 40 uM on the Tsg101 melting curve.

| Compound | residue bound in Tsg101 UEV (NMR and fluorescence perturbances) [1] | reduction of intensity of Gag-Tsg101 co-localization signal [2] [fold] | Tm shift of Tsg101 melting curve [3] [degree] | time to complete formation of N16 UEV complex ([1]; 10:1 N16 excess, chemical shift perturbations) [h] | co-localization of Gag and Tsg101C73A-myc ([2]; 50 μM N16) | co-localization of Gag and Tsg101C87A-myc ([2]; 50 μM N16) |
| --- | --- | --- | --- | --- | --- | --- |
| COc1ccc2nc([S@@+]([O-])Cc3ncc(C)c(OC)c3C)[nH]c2c1 [F15, esomeprazole] | bind to residue C73 | ~2 | 5 | – | – | – |
| COc1ccc2[nH]c([S+]([O-])Cc3ncc(C)c(OC)c3C)nc2n1 (stereo not drawn) [N16, tenatoprazole] | bind to residue C73 | ~2 | 12 | 2 | failed to prevent co-localization | effectively eliminated co-localization |
